# Measurements from US10597380B2, “Pyridazinone-based broad spectrum anti-influenza inhibitors” (Hoffmann-La Roche Inc., priority 2017, dated 2020).
# pIC50: −log10 of the molar value.
# Test system: Influenza A/WSN/33-Luciferase virus
# Assay: microbe, parasite or virus in culture
# Format: cell-based
# Settings: A549, 72 h, luciferase signal three days later, read-out: IC50 antiviral activity (Luciferase reporter assay)
row,Compound,pIC50
1,"CC(=O)N1CCc2c(Nc3cccn(C)c3=O)nn(-c3ccc(OC(F)(F)F)cc3)c(=O)c2C1 [Example 148, 6-Acetyl-1-[(1-methyl-2-oxo-3-pyridyl)amino]-3-[4-(trifluoromethoxy)phenyl]-7,8-dihydro-5H-pyrido[3,4-d]pyridazin-4-one]",7.72
2,"CC(=O)N1CCc2c(c(Nc3cccn(C)c3=O)nn(-c3ccc(OC(F)(F)F)cc3)c2=O)C1 [Example 149, 6-Acetyl-4-[(1-methyl-2-oxo-3-pyridyl)amino]-2-[4-(trifluoromethoxy)phenyl]-7,8-dihydro-5H-pyrido[3,4-d]pyridazin-1-one]",7.15
3,"CC(=O)N1CCc2c(Nc3cncn(C)c3=O)nn(-c3ccc(OC(F)(F)F)cc3)c(=O)c2C1 [Example 150, 6-Acetyl-1-[(1-methyl-6-oxo-pyrimidin-5-yl)amino]-3-[4-(trifluoromethoxy)phenyl]-7,8-dihydro-5H-pyrido[3,4-d]pyridazin-4-one]",6.98
4,"CC(=O)N1CCc2c(c(Nc3cncn(C)c3=O)nn(-c3ccc(OC(F)(F)F)cc3)c2=O)C1 [Example 151, 6-Acetyl-4-[(1-methyl-6-oxo-pyrimidin-5-yl)amino]-2-[4-(trifluoromethoxy)phenyl]-7,8-dihydro-5H-pyrido[3,4-d]pyridazin-1-one]",6.43
5,"COC(=O)N1CCc2c(c(Nc3cccn(C)c3=O)nn(-c3ccc(OC(F)(F)F)cc3)c2=O)C1 [Example 152, Methyl 4-[(1-methyl-2-oxo-3-pyridyl)amino]-1-oxo-2-[4-(trifluoromethoxy)phenyl]-7,8-dihydro-5H-pyrido[3,4-d]pyridazine-6-carboxylate]",7.49
6,"COC(=O)N1CCc2c(Nc3cccn(C)c3=O)nn(-c3ccc(OC(F)(F)F)cc3)c(=O)c2C1 [Example 153, Methyl 1-[(1-methyl-2-oxo-3-pyridyl)amino]-4-oxo-3-[4-(trifluoromethoxy)phenyl]-7,8-dihydro-5H-pyrido[3,4-d]pyridazine-6-carboxylate]",7.21
7,"Cn1cccc(Nc2nn(-c3ccc(OC(F)(F)F)cc3)c(=O)c3c2CN(C=O)CC3)c1=O [Example 154, 4-[(1-Methyl-2-oxo-3-pyridyl)amino]-1-oxo-2-[4-(trifluoromethoxy)phenyl]-7,8-dihydro-5H-pyrido[3,4-d]pyridazine-6-carbaldehyde]",6.84
8,"Cn1cccc(Nc2nn(-c3ccc(OC(F)(F)F)cc3)c(=O)c3c2CCN(C=O)C3)c1=O [Example 155, 1-[(1-Methyl-2-oxo-3-pyridyl)amino]-4-oxo-3-[4-(trifluoromethoxy)phenyl]-7,8-dihydro-5H-pyrido[3,4-d]pyridazine-6-carbaldehyde]",7.07
9,"Cn1cccc(Nc2nn(-c3ccc(OC(F)(F)F)cc3)c(=O)c3c2CCN(S(C)(=O)=O)C3)c1=O [Example 156, 1-[(1-Methyl-2-oxo-3-pyridyl)amino]-6-methylsulfonyl-3-[4-(trifluoromethoxy)phenyl]-7,8-dihydro-5H-pyrido[3,4-d]pyridazin-4-one]",6.58
10,"Cn1cccc(Nc2nn(-c3ccc(OC(F)(F)F)cc3)c(=O)c3c2CN(S(C)(=O)=O)CC3)c1=O [Example 157, 4-[(1-Methyl-2-oxo-3-pyridyl)amino]-6-methylsulfonyl-2-[4-(trifluoromethoxy)phenyl]-7,8-dihydro-5H-pyrido[3,4-d]pyridazin-1-one]",6.78
11,"CCN1CCc2c(Nc3cccn(C)c3=O)nn(-c3ccc(OC(F)(F)F)cc3)c(=O)c2C1 [Example 158, 6-Ethyl-1-[(1-methyl-2-oxo-3-pyridyl)amino]-3-[4-(trifluoromethoxy)phenyl]-7,8-dihydro-5H-pyrido[3,4-d]pyridazin-4-one]",6.98
12,"CC(C)N1CCc2c(Nc3cccn(C)c3=O)nn(-c3ccc(OC(F)(F)F)cc3)c(=O)c2C1 [Example 159, 6-Isopropyl-1-[(1-methyl-2-oxo-3-pyridyl)amino]-3-[4-(trifluoromethoxy)phenyl]-7,8-dihydro-5H-pyrido[3,4-d]pyridazin-4-one]",6.73
13,"CNC(=O)N1CCc2c(c(Nc3cccn(C)c3=O)nn(-c3ccc(OC(F)(F)F)cc3)c2=O)C1 [Example 160, N-Methyl-4-[(1-methyl-2-oxo-3-pyridyl)amino]-1-oxo-2-[4-(trifluoromethoxy)phenyl]-7,8-dihydro-5H-pyrido[3,4-d]pyridazine-6-carboxamide]",7.07
14,"CNC(=O)N1CCc2c(Nc3cccn(C)c3=O)nn(-c3ccc(OC(F)(F)F)cc3)c(=O)c2C1 [Example 161, N-Methyl-1-[(1-methyl-2-oxo-3-pyridyl)amino]-4-oxo-3-[4-(trifluoromethoxy)phenyl]-7,8-dihydro-5H-pyrido[3,4-d]pyridazine-6-carboxamide]",6.95
15,"Cn1cccc(Nc2nn(-c3ccc(C(C)(C)O)cc3)c(=O)c3ccccc23)c1=O [Example 162, 2-[4-(1-Hydroxy-1-methyl-ethyl)phenyl]-4-[(1-methyl-2-oxo-3-pyridyl)amino]phthalazin-1-one]",5.85
16,"O=c1c(Nc2nn(-c3ccc(OC(F)(F)F)cc3)c(=O)c3ccccc23)cccn1CCO [Example 163, 4-[[1-(2-Hydroxyethyl)-2-oxo-3-pyridyl]amino]-2-[4-(trifluoromethoxy)phenyl]phthalazin-1-one]",7.21
17,"Cn1cccc(Nc2nn(-c3ccc(OC(F)(F)F)cc3)c(=O)c3c2CCC(O)C3)c1=O (stereo not shown) [Example 164, 7-Hydroxy-4-[(1-methyl-2-oxo-3-pyridyl)amino]-2-[4-(trifluoromethoxy)phenyl]-5,6,7,8-tetrahydrophthalazin-1-one]",7.34
18,"Cn1cccc(Nc2nn(-c3ccc(OC(F)(F)F)cc3)c(=O)c3c2CC(O)CC3)c1=O (stereo not shown) [Example 165, 6-hydroxy-4-[(1-methyl-2-oxo-3-pyridyl)amino]-2-[4-(trifluoromethoxy)phenyl]-5,6,7,8-tetrahydrophthalazin-1-one]",7.62
19,"CC(O)(CN)Cn1cccc(Nc2nn(-c3ccc(OC(F)(F)F)cc3)c(=O)c3c2CCC3)c1=O (stereo not shown) [Example 166, 1-[[1-(3-Amino-2-hydroxy-2-methyl-propyl)-2-oxo-3-pyridyl]amino]-3-[4-(trifluoromethoxy)phenyl]-6,7-dihydro-5H-cyclopenta[d]pyridazin-4-one]",6.97
20,"O=C(Cn1cccc(Nc2nn(-c3ccc(OC(F)(F)F)cc3)c(=O)c3c2CCC3)c1=O)N1CCNCC1 [Example 167, 1-[[2-Oxo-1-(2-oxo-2-piperazin-1-yl-ethyl)-3-pyridyl]amino]-3-[4-(trifluoromethoxy)phenyl]-6,7-dihydro-5H-cyclopenta[d]pyridazin-4-one]",6.83
21,"O=c1c(Nc2nn(-c3ccc(OC(F)(F)F)cc3)c(=O)c3c2CCC3)cccn1CCNC1COC1 [Example 168, 1-[[1-[2-(Oxetan-3-ylamino)ethyl]-2-oxo-3-pyridyl]amino]-3-[4-(trifluoromethoxy)phenyl]-6,7-dihydro-5H-cyclopenta[d]pyridazin-4-one]",7.62
22,"O=c1c(Nc2nn(-c3ccc(OC(F)(F)F)cc3)c(=O)c3c2CCC3)cncn1CCN1CC(O)C1 [Example 169, 1-[[1-[2-(3-Hydroxyazetidin-1-yl)ethyl]-6-oxo-pyrimidin-5-yl]amino]-3-[4-(trifluoromethoxy)phenyl]-6,7-dihydro-5H-cyclopenta[d]pyridazin-4-one]",6.51
